Source: patent US20240189318A1, “THERAPEUTIC REGIMENS OF AN INHIBITOR OF THE ENZYMATIC ACTIVITY OF BRG1 AND BRM” (FOGHORN THERAPEUTICS INC., priority 2021, published 2024)
Read-outs that look alike come from different tables or passages of the source.

What was measured:
[1] = Depletion in Control Bactosomes and Reductase Control; assay type: in vitro ADME
CYP1a2 mRNA = experiment: CYP mRNA expression in cultured rat hepatocytes, CYP1a2; assay type: in vitro ADME; conditions: 0.3 to 100 nM
CYP3A4/5 = experiment: CYP enzyme inhibition in pooled human liver microsomes, CYP3A4/5; conditions: for inhibition at 10 µM / inhibition at 30 µM: Enzyme activity (% inhibition), CYP3A4/5
SBC-5 cells = experiment: 10-day proliferation assay, negative control cells lacking BRG1 and BRM; conditions: Homo sapiens, SBC-5, 240 h, read-out: mean IC50, cell proliferation
92-1 cells = experiment: 3-day cell proliferation assay (CellTiter-Glo); conditions: Homo sapiens, 72 h, read-out: mean IC50, cell proliferation
CYP2D6 = CYP2D6 (Homo sapiens, UniProt P10635); experiment: Depletion by recombinant CYP enzyme, CYP2D6; assay type: in vitro ADME; parameters: from tissue; host or cells: pooled human liver microsomes; conditions: recombinant 2D6
P-gp = target: T1, P-gp (Homo sapiens, UniProt P08183); experiment: Transporter inhibition in MDCK-II cells, P-gp; assay type: in vitro ADME; conditions: for IC50: probe quinidine 0.1 μM
T1 construct: expressed in transfected cells; host or cells: MDCK-II

CYP2C19 mRNA = experiment: CYP mRNA level in cultured human hepatocytes, CYP2C19; assay type: in vitro ADME; conditions: tested concentrations up to 50 nM
[2] = Oral absorption in dogs, capsule; assay type: in vivo; conditions: administered in a capsule
CYP2b1 mRNA = experiment: CYP mRNA expression in cultured rat hepatocytes, CYP2b1; assay type: in vitro ADME; conditions: 0.3 to 100 nM
CYP3A activity = experiment: CYP enzyme activity in cultured human hepatocytes, CYP3A4; assay type: in vitro ADME
CYP2C19 = CYP2C19 (Homo sapiens, UniProt P33261); experiment: Depletion by recombinant CYP enzyme, CYP2C19; assay type: in vitro ADME; parameters: from tissue; host or cells: pooled human liver microsomes; conditions: recombinant 2C19
CYP2B6 = target: T2, CYP2B6 (Homo sapiens, UniProt P20813); experiment: Depletion by recombinant CYP enzyme, CYP2B6; assay type: in vitro ADME; parameters: from tissue; host or cells: pooled human liver microsomes; conditions: recombinant 2B6; 0.1 μM
T2 sequence (P20813 1-491): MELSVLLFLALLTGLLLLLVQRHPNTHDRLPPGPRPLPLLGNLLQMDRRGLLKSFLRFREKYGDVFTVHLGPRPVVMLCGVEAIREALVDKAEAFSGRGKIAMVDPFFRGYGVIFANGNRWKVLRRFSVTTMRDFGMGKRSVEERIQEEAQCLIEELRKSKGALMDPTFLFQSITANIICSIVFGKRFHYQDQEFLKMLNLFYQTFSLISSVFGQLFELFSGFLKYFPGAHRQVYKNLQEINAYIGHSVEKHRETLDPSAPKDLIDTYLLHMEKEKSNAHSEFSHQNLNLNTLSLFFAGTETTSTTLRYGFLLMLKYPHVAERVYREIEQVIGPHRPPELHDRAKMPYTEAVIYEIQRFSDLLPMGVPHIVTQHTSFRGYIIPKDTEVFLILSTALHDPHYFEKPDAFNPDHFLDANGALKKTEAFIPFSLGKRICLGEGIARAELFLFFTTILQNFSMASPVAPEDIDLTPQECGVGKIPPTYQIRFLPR

CYP2C8 = CYP2C8 (Homo sapiens, UniProt P10632); experiment: Depletion by recombinant CYP enzyme, CYP2C8; assay type: in vitro ADME; parameters: from tissue; host or cells: pooled human liver microsomes; conditions: recombinant 2C8
CYP2C9 = CYP2C9 (Homo sapiens, UniProt P11712); experiment: Depletion by recombinant CYP enzyme, CYP2C9; assay type: in vitro ADME; parameters: from tissue; host or cells: pooled human liver microsomes; conditions: recombinant 2C9
OAT1 = target: T3, OAT1 (Homo sapiens, UniProt Q4U2R8); experiment: Transporter inhibition in MDCK-II cells, OAT1; assay type: in vitro ADME; conditions: for IC50: probe p-aminohippurate 2 μM
T3 construct: expressed in transfected cells; host or cells: MDCK-II
T3 sequence (Q4U2R8 1-563): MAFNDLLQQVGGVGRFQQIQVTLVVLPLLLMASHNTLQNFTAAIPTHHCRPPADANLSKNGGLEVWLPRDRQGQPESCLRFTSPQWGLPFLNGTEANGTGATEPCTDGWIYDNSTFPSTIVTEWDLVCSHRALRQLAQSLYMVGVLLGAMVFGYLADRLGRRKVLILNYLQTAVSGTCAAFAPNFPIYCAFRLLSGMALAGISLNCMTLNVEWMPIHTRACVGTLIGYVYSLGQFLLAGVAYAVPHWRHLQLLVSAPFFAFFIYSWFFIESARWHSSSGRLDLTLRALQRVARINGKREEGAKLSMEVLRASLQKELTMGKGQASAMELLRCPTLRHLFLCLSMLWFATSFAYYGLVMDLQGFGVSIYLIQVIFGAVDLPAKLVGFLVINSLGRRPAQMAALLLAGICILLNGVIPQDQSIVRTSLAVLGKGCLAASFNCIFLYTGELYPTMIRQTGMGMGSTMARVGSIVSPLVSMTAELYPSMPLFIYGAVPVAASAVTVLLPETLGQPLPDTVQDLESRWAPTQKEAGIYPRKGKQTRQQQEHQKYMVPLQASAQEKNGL

[3] = human, pooled human liver microsomes, probe midazolam (1′-hydroxylation), 30 Minutes Pre-incubation with NADPH, probe Midazolam, PHLM
[4] = human, pooled human liver microsomes, probe midazolam (1′-hydroxylation), 30 Minutes Pre-incubation without NADPH, probe Midazolam, PHLM
[5] = human, pooled human liver microsomes, probe midazolam (1′-hydroxylation), No Pre-incubation, probe Midazolam, PHLM
[6] = human, pooled human liver microsomes, probe testosterone (6β-hydroxylation), 30 Minutes Pre-incubation with NADPH, probe Testosterone, PHLM
[7] = human, pooled human liver microsomes, probe testosterone (6β-hydroxylation), 30 Minutes Pre-incubation without NADPH, probe Testosterone, PHLM
[8] = human, pooled human liver microsomes, probe testosterone (6β-hydroxylation), No Pre-incubation, probe Testosterone, PHLM

T1 sequence (P08183 whole entry): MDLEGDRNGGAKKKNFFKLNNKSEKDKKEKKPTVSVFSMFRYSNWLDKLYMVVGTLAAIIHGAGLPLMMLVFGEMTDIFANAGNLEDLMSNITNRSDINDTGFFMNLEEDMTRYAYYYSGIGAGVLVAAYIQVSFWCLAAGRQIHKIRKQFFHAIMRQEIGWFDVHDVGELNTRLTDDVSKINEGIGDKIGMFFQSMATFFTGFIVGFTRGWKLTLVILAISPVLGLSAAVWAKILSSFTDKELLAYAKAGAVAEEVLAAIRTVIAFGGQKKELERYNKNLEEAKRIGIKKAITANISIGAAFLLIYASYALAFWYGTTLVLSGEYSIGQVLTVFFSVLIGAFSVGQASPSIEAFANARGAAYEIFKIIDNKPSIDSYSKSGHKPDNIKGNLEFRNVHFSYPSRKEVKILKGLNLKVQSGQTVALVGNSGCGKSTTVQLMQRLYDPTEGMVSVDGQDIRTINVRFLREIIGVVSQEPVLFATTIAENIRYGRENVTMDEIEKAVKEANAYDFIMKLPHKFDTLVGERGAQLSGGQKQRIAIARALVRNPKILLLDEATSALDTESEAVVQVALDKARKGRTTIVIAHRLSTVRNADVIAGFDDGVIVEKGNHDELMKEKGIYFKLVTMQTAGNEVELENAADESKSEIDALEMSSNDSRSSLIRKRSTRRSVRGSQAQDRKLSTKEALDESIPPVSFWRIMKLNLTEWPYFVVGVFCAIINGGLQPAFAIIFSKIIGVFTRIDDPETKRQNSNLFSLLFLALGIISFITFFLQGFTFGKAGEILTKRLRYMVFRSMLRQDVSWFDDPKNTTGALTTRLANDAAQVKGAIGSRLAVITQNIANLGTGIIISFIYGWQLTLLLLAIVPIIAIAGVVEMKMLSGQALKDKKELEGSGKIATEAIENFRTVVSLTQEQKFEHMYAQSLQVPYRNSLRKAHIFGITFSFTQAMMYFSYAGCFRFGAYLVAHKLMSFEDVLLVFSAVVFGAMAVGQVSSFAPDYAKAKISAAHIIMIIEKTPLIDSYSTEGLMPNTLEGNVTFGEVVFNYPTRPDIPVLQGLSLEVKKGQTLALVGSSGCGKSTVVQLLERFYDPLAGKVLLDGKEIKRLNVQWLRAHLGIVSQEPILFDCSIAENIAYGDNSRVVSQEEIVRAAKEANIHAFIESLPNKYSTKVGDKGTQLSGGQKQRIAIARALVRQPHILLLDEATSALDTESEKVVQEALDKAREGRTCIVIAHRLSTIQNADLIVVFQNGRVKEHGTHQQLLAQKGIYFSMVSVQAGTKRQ
Sequence of CYP2C19 (P33261 whole entry): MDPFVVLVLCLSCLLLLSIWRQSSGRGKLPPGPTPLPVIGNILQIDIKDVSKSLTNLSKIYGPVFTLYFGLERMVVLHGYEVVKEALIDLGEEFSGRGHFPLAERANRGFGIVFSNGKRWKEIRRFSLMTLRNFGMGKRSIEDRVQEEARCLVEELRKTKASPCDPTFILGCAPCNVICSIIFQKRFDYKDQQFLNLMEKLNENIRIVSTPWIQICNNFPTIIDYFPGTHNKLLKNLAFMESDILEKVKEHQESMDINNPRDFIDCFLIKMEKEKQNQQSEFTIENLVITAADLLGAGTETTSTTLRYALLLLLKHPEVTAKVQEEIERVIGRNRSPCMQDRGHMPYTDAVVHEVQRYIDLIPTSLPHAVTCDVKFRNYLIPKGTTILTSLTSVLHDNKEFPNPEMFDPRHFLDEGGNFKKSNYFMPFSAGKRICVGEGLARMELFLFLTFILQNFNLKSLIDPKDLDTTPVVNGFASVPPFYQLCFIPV
Sequence of CYP2C9 (P11712 whole entry): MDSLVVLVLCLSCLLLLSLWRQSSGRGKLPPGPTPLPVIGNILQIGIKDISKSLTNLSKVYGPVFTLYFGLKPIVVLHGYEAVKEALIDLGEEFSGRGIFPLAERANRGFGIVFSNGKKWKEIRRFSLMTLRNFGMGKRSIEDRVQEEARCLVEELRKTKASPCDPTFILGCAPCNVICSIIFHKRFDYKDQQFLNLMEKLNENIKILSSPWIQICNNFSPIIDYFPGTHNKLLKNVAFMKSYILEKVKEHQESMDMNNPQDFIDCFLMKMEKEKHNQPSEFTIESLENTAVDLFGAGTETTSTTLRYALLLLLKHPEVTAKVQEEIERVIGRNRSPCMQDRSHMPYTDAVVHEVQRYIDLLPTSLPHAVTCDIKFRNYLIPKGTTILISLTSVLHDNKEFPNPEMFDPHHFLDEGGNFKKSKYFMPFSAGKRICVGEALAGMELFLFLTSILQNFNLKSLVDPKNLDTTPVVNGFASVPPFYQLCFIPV
Sequence of CYP2D6 (P10635 whole entry): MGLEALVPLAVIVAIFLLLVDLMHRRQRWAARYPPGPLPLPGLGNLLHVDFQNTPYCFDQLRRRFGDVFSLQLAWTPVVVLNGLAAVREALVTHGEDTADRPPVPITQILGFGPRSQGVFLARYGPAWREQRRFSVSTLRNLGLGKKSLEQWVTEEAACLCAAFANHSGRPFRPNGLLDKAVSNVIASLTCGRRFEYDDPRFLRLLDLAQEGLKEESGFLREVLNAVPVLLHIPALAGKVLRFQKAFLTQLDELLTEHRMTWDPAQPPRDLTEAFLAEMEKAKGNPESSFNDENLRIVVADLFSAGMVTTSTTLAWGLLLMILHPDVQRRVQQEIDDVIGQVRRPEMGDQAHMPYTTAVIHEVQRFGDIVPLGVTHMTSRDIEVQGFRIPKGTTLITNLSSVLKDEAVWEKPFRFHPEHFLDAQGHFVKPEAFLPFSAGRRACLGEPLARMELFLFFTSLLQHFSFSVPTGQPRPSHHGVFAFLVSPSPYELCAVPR
Sequence of CYP2C8 (P10632 whole entry): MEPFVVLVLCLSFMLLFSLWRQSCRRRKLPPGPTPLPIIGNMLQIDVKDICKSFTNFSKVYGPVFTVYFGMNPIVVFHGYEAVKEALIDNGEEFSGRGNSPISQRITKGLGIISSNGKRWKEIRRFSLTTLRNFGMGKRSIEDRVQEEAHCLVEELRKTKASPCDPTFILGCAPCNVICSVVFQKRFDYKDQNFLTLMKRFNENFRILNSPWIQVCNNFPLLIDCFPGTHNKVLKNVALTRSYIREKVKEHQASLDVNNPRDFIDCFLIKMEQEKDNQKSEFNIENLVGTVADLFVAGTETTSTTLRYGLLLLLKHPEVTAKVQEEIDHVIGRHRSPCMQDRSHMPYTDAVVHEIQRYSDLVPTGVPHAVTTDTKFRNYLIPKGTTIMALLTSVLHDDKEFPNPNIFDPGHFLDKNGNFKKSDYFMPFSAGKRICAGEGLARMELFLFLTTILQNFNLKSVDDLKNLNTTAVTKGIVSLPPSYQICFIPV

## COC[C@H](NC(=O)c1ccn(S(C)(=O)=O)c1)C(=O)Nc1nc(-c2cccc(N3C[C@@H](C)O[C@@H](C)C3)n2)cs1 [compound of formula (I), N-((S)-1-((4-(6-(cis-2,6-dimethylmorpholino)pyridin-2-yl)thiazol-2-yl)amino)-3-methoxy-1-oxopropan-2-yl)-1-(methylsulfonyl)-1H-pyrrole-3-carboxamide]
[1]; Control Bactosomes, 0.1 μM
  % Remaining of Compound of Formula (I): 90.2%
[1]; Control Bactosomes, 1 μM
  % Remaining of Compound of Formula (I): 98.3%
[1]; Reductase Control, 0.1 μM
  % Remaining of Compound of Formula (I): 78.3%
[1]; Reductase Control, 1 μM
  % Remaining of Compound of Formula (I): 109%
CYP1a2 mRNA
  CYP1a2 mRNA expression decreased ≥50%: but not CYP1a2
CYP3A4/5; PHLM
  time-dependent inhibition of CYP3A4/5: weak time-dependent inhibitor
CYP3A4/5; PHLM, concentrations up to 30 μM
  direct inhibitory activity (% inhibition) toward CYP3A: < 50%
CYP3A4/5; human, pooled human liver microsomes
  IC50: > 30 µM
CYP3A4/5; human, pooled human liver microsomes, increase in CYP3A4/5 inhibition by preincubation, concentrations of ≤10 μM
  inhibition at 30 min, 10 µM: < 20%
CYP3A4/5; [3]
  inhibition at 10 µM: 25.3%
  inhibition at 30 µM: 40.2%
CYP3A4/5; [4]
  inhibition at 10 µM: 6.5%
  inhibition at 30 µM: -1%
CYP3A4/5; [5]
  inhibition at 10 µM: 18.2%
  inhibition at 30 µM: 13.6%
CYP3A4/5; [6]
  inhibition at 10 µM: 27.4%
  inhibition at 30 µM: 49.3%
CYP3A4/5; [7]
  inhibition at 10 µM: 10.5%
  inhibition at 30 µM: 20.8%
CYP3A4/5; [8]
  inhibition at 10 µM: 9.7%
  inhibition at 30 µM: 18.4%
SBC-5 cells
  IC50: > 25 µM
92-1 cells
  IC50: 0.00113 µM
CYP2D6; 0.1 μM
  % Remaining of Compound of Formula (I): 85.0%
CYP2D6; 1 μM
  % Remaining of Compound of Formula (I): 93.5%
P-gp; FDA guidance 2020, human dose of 300 mg
  R-value for P-gp inhibition in the gut: > 10
P-gp; P-gp in MDCK-II cells, read-out: Estimated IC50 using nominal concentrations
  IC50: 18.5 µM
P-gp; P-gp, corrected, read-out: IC50 corrected for non-specific binding
  IC50: 4.36 µM
CYP2C19 mRNA
  effect on mRNA expression of CYP2C19: minimal effect
[2]
  oral absorption: good oral absorption
CYP2b1 mRNA
  concentrations at which CYP2b1 mRNA expression was decreased ≥50%: ≥ 0.01 µM
CYP3A activity; 0.3 to 50 nM
  effect on CYP3A activity: minimal
CYP3A activity; concentrations 1 to 50 nM
  decrease in CYP3A activity: ≤ 32%
CYP2C19; 0.1 μM
  % Remaining of Compound of Formula (I): 80.5%
CYP2C19; 1 μM
  % Remaining of Compound of Formula (I): 95.0%
CYP2B6
  % Remaining of Compound of Formula (I): 85.3%
CYP2C8; 0.1 μM
  % Remaining of Compound of Formula (I): 81.0%
CYP2C8; 1 μM
  % Remaining of Compound of Formula (I): 95.4%
CYP2C9; 0.1 μM
  % Remaining of Compound of Formula (I): 79.9%
CYP2C9; 1 μM
  % Remaining of Compound of Formula (I): 100%
OAT1; OAT1, corrected for difference between measured and nominal concentrations, read-out: IC50 corrected for non-specific binding
  IC50: > 11.8 µM
OAT1; OAT1 in MDCK-II cells, read-out: Estimated IC50 using nominal concentrations
  IC50: > 50 µM
OAT1; nominal test concentrations up to 50 μM
  inhibition toward OAT1: minimal inhibition
